According to PubChem BioAssay (NCI):
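Step 1: Grow cells in 96-well plates. Step 2: Expose to compound for 48 hours at 5 concentrations. Step 3: Interpolate endpoints linearly; if unreached, use highest concentration. GI50 = concentration required for 50% inhibition of growth. TGI denotes the concentration required for complete inhibition of growth.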

Tests used:
Assay in all cases: NCI anticancer screen, dose series, 48 h
[1] = tested on: 786-0 renal
[2] = tested on: A498 renal
[3] = tested on: A549 NSCLC
[4] = tested on: ACHN renal
[5] = tested on: BT-549 breast
[6] = tested on: CAKI-1 renal
[7] = tested on: CCRF-CEM leukemia
[8] = tested on: COLO 205 colon
[9] = tested on: DU-145 prostate
[10] = tested on: EKVX NSCLC
[11] = tested on: HCC-2998 colon
[12] = tested on: HCT-116 colon
[13] = tested on: HCT-15 colon
[14] = tested on: HL-60(TB) leukemia
[15] = tested on: HOP-62 NSCLC
[16] = tested on: HOP-92 NSCLC
[17] = tested on: HS 578T breast
[18] = tested on: HT29 colon
[19] = tested on: IGROV1 ovarian
[20] = tested on: K-562 leukemia
[21] = tested on: KM12 colon
[22] = tested on: LOX IMVI melanoma
[23] = tested on: M14 melanoma
[24] = tested on: MALME-3M melanoma
[25] = tested on: MCF7 breast
[26] = tested on: MDA-MB-231 breast
[27] = tested on: MDA-MB-435
[28] = tested on: MOLT-4 leukemia
[29] = tested on: NCI-H226 lung
[30] = tested on: NCI-H23 lung
[31] = tested on: NCI-H460 lung
[32] = tested on: NCI-H522 lung
[33] = tested on: NCI/ADR-RES ovarian
[34] = tested on: OVCAR-3 ovarian
[35] = tested on: OVCAR-4 ovarian
[36] = tested on: OVCAR-5 ovarian
[37] = tested on: OVCAR-8 ovarian
[38] = tested on: PC-3 prostate
[39] = tested on: RPMI-8226 leukemia
[40] = tested on: RXF 393 renal
[41] = tested on: SF-268 CNS
[42] = tested on: SF-295 CNS
[43] = tested on: SF-539 CNS
[44] = tested on: SK-MEL-2 melanoma
[45] = tested on: SK-MEL-28 melanoma
[46] = tested on: SK-MEL-5 melanoma
[47] = tested on: SK-OV-3 ovarian
[48] = tested on: SN12C renal
[49] = tested on: SNB-19 CNS
[50] = tested on: SR leukemia
[51] = tested on: SW-620 colon
[52] = tested on: T-47D breast
[53] = tested on: TK-10 renal
[54] = tested on: U251 CNS
[55] = tested on: UACC-257 melanoma
[56] = tested on: UACC-62 melanoma
[57] = tested on: UO-31 renal

Cn1cc(-c2nnc(N)nc2-c2c[nH]c3ccc(F)cc23)c2cc(Br)ccc21
GI50 [1]: 3.79 µM
TGI [1]: 22.4 µM
GI50 [2]: 1.54 µM
TGI [2]: 4.84 µM
GI50 [3]: 2.11 µM
TGI [3]: 46.7 µM
GI50 [4]: 2.8 µM
TGI [4]: 13.6 µM
GI50 [5]: 2.67 µM
TGI [5]: 17.6 µM
GI50 [6]: 0.668 µM
TGI [6]: 12.5 µM
GI50 [7]: 2.29 µM
TGI [7]: > 100 µM
GI50 [8]: 0.64 µM
TGI [8]: 3.94 µM
GI50 [9]: 2.91 µM
TGI [9]: 26.9 µM
GI50 [10]: 3.02 µM
TGI [10]: 15.8 µM
GI50 [11]: 2.99 µM
TGI [11]: 12.5 µM
GI50 [12]: 1.08 µM
TGI [12]: 11.1 µM
GI50 [13]: 0.591 µM
TGI [13]: 13.1 µM
GI50 [14]: 0.707 µM
TGI [14]: > 100 µM
GI50 [15]: 1.64 µM
TGI [15]: 14.6 µM
GI50 [16]: 1.7 µM
TGI [16]: 13.1 µM
GI50 [17]: 2.04 µM
TGI [17]: 8.17 µM
GI50 [18]: 0.458 µM
TGI [18]: 10.8 µM
GI50 [19]: 0.881 µM
TGI [19]: 12.7 µM
GI50 [20]: 0.453 µM
TGI [20]: > 100 µM
GI50 [21]: 0.875 µM
TGI [21]: 14.6 µM
GI50 [22]: 1.19 µM
TGI [22]: 14 µM
GI50 [23]: 1.3 µM
TGI [23]: 12.3 µM
GI50 [24]: 1.32 µM
TGI [24]: 16.6 µM
GI50 [25]: 0.7 µM
TGI [25]: 11.2 µM
GI50 [26]: 2.3 µM
TGI [26]: 16.7 µM
GI50 [27]: 0.28 µM
TGI [27]: 0.829 µM
GI50 [28]: 1.38 µM
TGI [28]: > 100 µM
GI50 [29]: 3.06 µM
TGI [29]: 24.4 µM
GI50 [30]: 2.08 µM
TGI [30]: 10.4 µM
GI50 [31]: 0.611 µM
TGI [31]: 10.8 µM
GI50 [32]: 0.933 µM
TGI [32]: 8.28 µM
GI50 [33]: 2.25 µM
TGI [33]: 22.9 µM
GI50 [34]: 1.15 µM
TGI [34]: 9.57 µM
GI50 [35]: 2.91 µM
TGI [35]: 13.1 µM
GI50 [36]: 3.15 µM
TGI [36]: 16.7 µM
GI50 [37]: 2.98 µM
TGI [37]: 20.7 µM
GI50 [38]: 0.991 µM
TGI [38]: 20.6 µM
GI50 [39]: 2.29 µM
TGI [39]: 43.4 µM
GI50 [40]: 1.38 µM
TGI [40]: 3.88 µM
GI50 [41]: 2.73 µM
TGI [41]: 20.1 µM
GI50 [42]: 0.792 µM
TGI [42]: 5.08 µM
GI50 [43]: 1.88 µM
TGI [43]: 8.7 µM
GI50 [44]: 2.06 µM
TGI [44]: 10.5 µM
GI50 [45]: 2.98 µM
TGI [45]: 17.6 µM
GI50 [46]: 1.15 µM
TGI [46]: 2.71 µM
GI50 [47]: 2.53 µM
TGI [47]: 15.1 µM
GI50 [48]: 3.12 µM
TGI [48]: 17.4 µM
GI50 [49]: 2.56 µM
TGI [49]: 14.8 µM
GI50 [50]: 0.671 µM
TGI [50]: > 100 µM
GI50 [51]: 0.658 µM
TGI [51]: 14.2 µM
GI50 [52]: 1.91 µM
TGI [52]: 19.9 µM
GI50 [53]: 5.18 µM
TGI [53]: 38.9 µM
GI50 [54]: 2.43 µM
TGI [54]: 14.3 µM
GI50 [55]: 4.71 µM
TGI [55]: 19.3 µM
GI50 [56]: 0.65 µM
TGI [56]: 12.6 µM
GI50 [57]: 1.76 µM
TGI [57]: 13.9 µM
